Test results taken from the NIST ThermoML archive (doi:10.1021/je400188h).
± gives the expanded uncertainty stated by the source.

Conditions: Crystal; visual observation

- Normal melting temperature: 177.00 ± 0.5 °C
Structure (SMILES): O=C(O)[C@@H]1Cc2ccccc2N1 [(S)-indoline-2-carboxylic acid]
